The values below come from patent US4434290A, “Pyrido (4,3-B) carbazoles substituted in the 1 position by a polyamine chain” (priority 1978, dated 1984).

The subject of one data set is leukemia L1210. Nature of the data set: Leukemia L1210 in vivo, measurement of survival time (Table XII). Also noted: species or system B6 D2 Fl (C 57 Bl/6×DBA/2) Fl mice; MST: unit not given here. Conditions: 10^5 cells, i.p. The protocol: The following pharmacological trials relate to the effects of the compounds of the invention on leukemia L1210 in vivo.
G. Proc. Nat. Acad. Sci. 1972, 69, 1042-1047 and Schepartz S., Screening 1971, Cancer Chemother. Part 3; Vol. 2, p. 3].
The properties were determined by the curative action inoculated experimental leukemia L1210. This leukemia was maintained on B6 D2 Fl (C 57 Bl/6×DBA/2) Fl mice in the proportion of 6 or 10 mice per experimental batch. The compounds to be tested were injected by the intraperitoneal route one or several days after inoculation of the cells (1 injection only). […] The death interval was determined, the first figure of the Table indicating the date of the first mouse death and the second the date of the last mouse death. The mean survival time was also measured (MST). A characteristic value is the percentage of increased life span (ILS %). This value (Cancer. Res. 1971, 31, 1883-1887) is the ratio: [formula] where S^t =survival of treated animals and
S^c =survival of control animals.

The subject of data set [1] is cells of viro-induced leukemia of Friend. Description: In vitro cytotoxic study on cells of the Friend leukemia of the mouse (Table XV). The data set is classed as cell-based. Conditions: for IC50 / IC100: Mus musculus, 24 h; for IC50: read-out: LD 50 (50% lethal dose); for IC100: read-out: LD 100 (100% lethal dose); for LD 50 HUM / LD 50 product: ratio to reference HUM. The protocol: "In vitro" cytotoxic study of the compounds of the invention on the cells of viro-induced leukemia of Friend in the mouse [J. Exp. Med. 1957, 105, p. 307-318].
The cells were grown in suspension in the RPMI 1640 medium [catalogue of GIBCO Bio-Cult-Ltd, Washington Road Sandyford Industrial Estate Paisley PA3 4EP Renfrewshire Scotland] supplement with 20% of embryonary calf serum, with penicillin and with streptopycin. The duplication time of the culture was about 11 hours. The growth factor is equal to 1 or very close to 1 (all the cells multiplying).
The cultures were seeded at times t=0 at the concentration of 2×10^5 cells per ml in Falcon dishes containing 4 ml of medium. 24 hours later, the product to be tested (in solution, in acetic water) was added, at the moment when the cells were in the exponential growth phase. 24 hours after the addition of the product, the cells were counted and the percentage of living cells determined by an exclusion test with trypan blue.

In the next data set the test system is L1210 cells. Nature of the data set: In vitro cytotoxic study on leukemia L1210 cells, complete inhibition of growth (Table XVI). The following applies: for IC (100 (complete growth inhibition, minimal)): Mus musculus, read-out: Minimal dose leading to a complete inhibition of the growth. The data set is classed as cell-based. The procedure:
(§1) Cytotoxic "in vitro" study on hamster cells on leukemia L1210 cells of the serie.
(§2) After 5 hours, the cells were attached to a plastic support and the products to be tested whose solutions had been formed in water or in DMSO (dimethylsulphoxide) if the product was little soluble in water, was added. In the latter case a control was carried out with the same final concentration of DMSO in the culture medium.
(§3) The state of the cells was examined 24, 48 and 72 hours later.
In the case of the L1210 cells, the tests were carried out in a medium gelled with agarose, the L1210 cells growing in suspension.

In another data set the test system is C13/8 cells. Description: In vitro cytotoxic study on hamster cells, complete inhibition of growth, C13/8 (Table XVI). It is filed as cell-based. The following applies: for IC (100 (complete growth inhibition, minimal)): Mesocricetus auratus, read-out: Minimal dose leading to a complete inhibition of the growth.
Description: as §1
In particular, the line BHK 21 of hamster cells and a clone derived from this line were used, converted by the virus of the hamster sarcoma (clone HS5).
After detachment by trypsin, the cells were placed under culture in plastic Petri dishes of 35 mm diameter at the concentration of 2.10^5 cells/dish, in a "Eagle" culture medium supplemented with "Bactotryptophosphate Broth Difco" and with 10% of calf serum [M. STOKER and I. MAC-PHERSON Virology, 14, 1961, 359].
as §2, §3

A further data set deals with HS5 cells. Description: In vitro cytotoxic study on hamster cells converted by the virus of the hamster sarcoma, clone HS5 (Table XVI). It is filed as cell-based. Conditions: for IC (100 (complete growth inhibition, minimal)): Mesocricetus auratus, read-out: Minimal dose leading to a complete inhibition of the growth. The procedure: Cytotoxic "in vitro" study on hamster cells on leukemia L1210 cells of the serie. In particular, the line BHK 21 of hamster cells and a clone derived from this line were used, converted by the virus of the hamster sarcoma (clone HS5). […] STOKER and […] Virology, 14, 1961, 359]. After 5 hours, the cells were attached to a plastic support and the products to be tested whose solutions had been formed in water or in DMSO (dimethylsulphoxide) if the product was little soluble in water, was added. In the latter case a control was carried out with the same final concentration of DMSO in the culture medium. The state of the cells was examined 24, 48 and 72 hours later.

Another data set deals with cell cultures. Description: Cytotoxicity in pharmacological tests (general statements). The data set is classed as cell-based.
Where [2] appears, read: L1210, medium gelled with agarose.

As to `COc1ccc2[nH]c3c(C)c4ccnc(NCCCN(C)C)c4c(C)c3c2c1` [Compound 26], in the data set with leukemia L1210 (10 mg/kg, day +4), the “Death interval (mice)” value is recorded as 12-16, the ILS % was 38.5% and the MST was found to be 14.4. In the data set on leukemia L1210 (20 mg/kg, day +4), the “Death interval (mice)” value was 16-19, the ILS % worked out at 67.3% and the MST is on record as 17.4. For the same compound, in data set [1], the IC50 is 0.4 µM, the IC100 amounted to 1 µM and the “LD 50 HUM / LD 50 product” value is 0.75.
With `CCN(CC)CCCNc1nccc2c(C)c3[nH]c4ccc(OCc5ccccc5)cc4c3cc12` [Compound 24], in data set [1], the IC50 is 3 µM, the IC100 was 10 µM and the “LD 50 HUM / LD 50 product” value is recorded as 0.1. Besides, in the data set with L1210 cells (setting [2]), the IC (100 (complete growth inhibition, minimal)) was 0.4 µM. Besides, the “activity compared with the reference BD40” value with L1210 cells (summary of Table XVI) is recorded as “almost as active as the reference dipyrido-indole (BD40)”.
Turning to `CCN(CC)CCCNc1nccc2c(C)c3[nH]c4ccc(OC)cc4c3cc12` [Compound 18], in the data set with leukemia L1210 (20 mg/kg, day +3), the “Death interval (mice)” value is on record as 13-19, the ILS % is 38.8% and the MST was 16.1. In data set [1], the IC50 was found to be 0.5 µM, the IC100 turned out to be 1.5 µM and the “LD 50 HUM / LD 50 product” value is recorded as 0.6. Further, the IC (100 (complete growth inhibition, minimal)) with C13/8 cells is 5 µM. Moreover, the IC (100 (complete growth inhibition, minimal)) with HS5 cells amounted to 5 µM.
As to `Cc1c2ccnc(NCCCN)c2cc2c1[nH]c1ccc(OCc3ccccc3)cc12` [Compound 23], in data set [1], the IC50 is 0.3 µM, the IC100 came to 0.9 µM and the “LD 50 HUM / LD 50 product” value is reported as 1.
For `COc1ccc2[nH]c3c(C)c4ccnc(NCCCCN)c4cc3c2c1` [Compound 13], in data set [1], the IC50 was 7 µM, the IC100 amounted to 15 µM and the “LD 50 HUM / LD 50 product” value is given as 0.04. Besides, the IC (100 (complete growth inhibition, minimal)) with C13/8 cells came to 2 µM. Besides, the IC (100 (complete growth inhibition, minimal)) in the data set on HS5 cells was found to be 2 µM.
In the case of `COc1ccc2[nH]c3c(C)c4ccnc(NCCCN(C)C)c4cc3c2c1` [Compound 17], in data set [1], the IC50 turned out to be 1.5 µM, the IC100 was 3 µM and the “LD 50 HUM / LD 50 product” value is reported as 0.2. Further, the IC (100 (complete growth inhibition, minimal)) with C13/8 cells was determined as 1 µM. Moreover, the IC (100 (complete growth inhibition, minimal)) in the data set on HS5 cells is 2 µM.
`COc1ccc2[nH]c3c(C)c4ccnc(NCCN)c4cc3c2c1` [Compound 11]: in data set [1], the “activity compared with HUM / known derivatives” value is given as “more active than the derivatives already known”, the IC50 is 0.1 µM, the IC100 is 0.25 µM and the “LD 50 HUM / LD 50 product” value was 3. Also, the IC (100 (complete growth inhibition, minimal)) with C13/8 cells turned out to be 1 µM. For the same compound, in the data set with HS5 cells, the IC (100 (complete growth inhibition, minimal)) is 1 µM.
In the case of `CCN(CC)CCCNc1nccc2c(C)c3[nH]c4ccncc4c3cc12` [BD 40, reference compound], the results for the “Minimal dose leading to a complete inhibition of the growth” value with L1210 cells (setting [2]), in the data set with C13/8 cells and in the data set on HS5 cells were 0.2 μ M, 0.25 μ M and 0.25 μ M, respectively.
Turning to `COc1ccc2[nH]c3c(C)c4ccnc(NCCCCCCN)c4cc3c2c1` [Compound 15], in data set [1], the IC50 was 0.8 µM, the IC100 was determined as 2 µM and the “LD 50 HUM / LD 50 product” value turned out to be 0.4. Also, the IC (100 (complete growth inhibition, minimal)) in the data set with C13/8 cells was found to be 2 µM. Further, the IC (100 (complete growth inhibition, minimal)) with HS5 cells came to 2 µM.
As for `Cc1c2cc[n+](C)cc2c(C)c2c1[nH]c1ccc(O)cc12` [HUM, 2-methyl-9-hydroxy ellipticinium acetate, reference compound], in data set [1], the IC50 stood at 0.3 µM and the IC100 worked out at 0.8 µM.
In the case of `CCN(CC)CCCNc1nccc2c(C)c3[nH]c4ccc(O)cc4c3cc12` [Compound 29], in the data set with leukemia L1210 (10 mg/kg, day +4), the “Death interval (mice)” value is 15-17, the ILS % stood at 55.8% and the MST was found to be 16.2. Moreover, in the data set on leukemia L1210 (20 mg/kg, day +4), the “Death interval (mice)” value is 10-15, the ILS % is recorded as 19.2% and the MST was 12.4. In data set [1], the “activity compared with HUM / known derivatives” value is “more active than the derivatives already known”, the IC50 is 0.017 µM, the IC100 was determined as 0.04 µM and the “LD 50 HUM / LD 50 product” value was 18.
Regarding `CCN(CC)CCCC(C)Nc1nccc2c(C)c3[nH]c4ccc(OC)cc4c3cc12` (centres unmarked) [Compound 19], in the data set on leukemia L1210 (10 mg/kg, day +4), the “Death interval (mice)” value is 11-16, the ILS % is 25% and the MST turned out to be 13. Moreover, in the data set on leukemia L1210 (20 mg/kg, day +4), the “Death interval (mice)” value is given as 11-16, the ILS % worked out at 19.2% and the MST is listed as 12.4. In data set [1], the IC50 stood at 1.3 µM, the IC100 came out at 3 µM and the “LD 50 HUM / LD 50 product” value is listed as 0.2.
Regarding `COc1ccc2[nH]c3c(C)c4ccnc(NCCCN)c4c(C)c3c2c1` [Compound 25], in the data set on leukemia L1210 (10 mg/kg, day +4), the “Death interval (mice)” value is listed as 12-13, the ILS % worked out at 21.1% and the MST turned out to be 12.6. Moreover, in the data set with leukemia L1210 (20 mg/kg, day +4), the “Death interval (mice)” value is reported as 8-12 and the MST is recorded as 9.6. In data set [1], the “activity compared with HUM / known derivatives” value was “more active than the derivatives already known”, the IC50 is 0.12 µM, the IC100 turned out to be 0.3 µM and the “LD 50 HUM / LD 50 product” value worked out at 3. Also, the IC (100 (complete growth inhibition, minimal)) with L1210 cells (setting [2]) came to 0.9 µM.
On to `COc1ccc2[nH]c3c(C)c4ccnc(N5CCCCC5)c4cc3c2c1` [Compound 21], for which, in data set [1], the IC50 stood at 35 µM, the IC100 amounted to 100 µM and the “LD 50 HUM / LD 50 product” value was determined as 1.1. Besides, in the data set with C13/8 cells, the IC (100 (complete growth inhibition, minimal)) is over 5 µM. Besides, the “cytotoxic activity” value in the data set with cell cultures is “not cytotoxic”. For the same compound, the IC (100 (complete growth inhibition, minimal)) in the data set on HS5 cells was over 5 µM.
On to `COc1ccc2[nH]c3c(C)c4ccnc(NCCN(C)C)c4cc3c2c1` [Compound 16], for which, in data set [1], the IC50 was determined as 0.8 µM, the IC100 turned out to be 3 µM and the “LD 50 HUM / LD 50 product” value is listed as 0.4. Further, the IC (100 (complete growth inhibition, minimal)) in the data set on C13/8 cells was determined as 1 µM. In the data set on HS5 cells, the IC (100 (complete growth inhibition, minimal)) is 2 µM.
For `COc1ccc2[nH]c3c(C)c4ccnc(NCCCCCN)c4cc3c2c1` [Compound 14], in data set [1], the IC50 was 0.5 µM, the IC100 stood at 1.5 µM and the “LD 50 HUM / LD 50 product” value stood at 0.6. In addition, in the data set on C13/8 cells, the IC (100 (complete growth inhibition, minimal)) was determined as 2 µM. Moreover, the IC (100 (complete growth inhibition, minimal)) in the data set on HS5 cells was 2 µM.
`COc1ccc2[nH]c3c(C)c4ccnc(NCCCN)c4cc3c2c1` [Compound 12]: in data set [1], the IC50 was determined as 0.25 µM, the IC100 was 0.7 µM and the “LD 50 HUM / LD 50 product” value worked out at 1.5. In addition, in the data set on C13/8 cells, the IC (100 (complete growth inhibition, minimal)) amounted to 2 µM. Besides, in the data set on HS5 cells, the IC (100 (complete growth inhibition, minimal)) came to 2 µM.
